Reference: publication PMC9571063 (Molecules, 2022)

Assays:
Assay in all cases: KINOMEscan
[1] = target: T1, MAP3K15 (Homo sapiens, UniProt Q6ZN16); type: binding; settings: read-out: Percent Control
T1 construct: purchased Eurofins DiscoverX KINOMEscan (scanMAX 468)

[2] = target: T2, LATS1 (Homo sapiens, UniProt O95835); type: binding; settings: read-out: Percent Control
T2 construct: purchased Eurofins DiscoverX KINOMEscan (scanMAX 468)

[3] = target: T3, DCAMKL1 (Homo sapiens, UniProt O15075); type: binding; settings: read-out: Percent Control
T3 construct: purchased Eurofins DiscoverX KINOMEscan (scanMAX 468)

[4] = target: T4, CAMK2G (Homo sapiens, UniProt Q13555); type: binding; settings: read-out: Percent Control
T4 construct: purchased Eurofins DiscoverX KINOMEscan (scanMAX 468)

[5] = target: T5, MAP4K5 (Homo sapiens, UniProt Q9Y4K4); type: binding; settings: read-out: Percent Control
T5 construct: purchased Eurofins DiscoverX KINOMEscan (scanMAX 468)

[6] = target: T6, ROCK1 (Homo sapiens, UniProt Q13464); type: binding; settings: read-out: Percent Control
T6 construct: purchased Eurofins DiscoverX KINOMEscan (scanMAX 468)

[7] = target: T7, TEC (Homo sapiens, UniProt P42680); type: binding; settings: read-out: Percent Control
T7 construct: purchased Eurofins DiscoverX KINOMEscan (scanMAX 468)

[8] = target: T8, EGFR(S752-I759del) (Homo sapiens, UniProt P00533, DEL752-759); type: binding; settings: read-out: Percent Control
T8 construct: purchased Eurofins DiscoverX KINOMEscan (scanMAX 468)

[9] = target: T9, ERBB3 (Homo sapiens, UniProt P21860); type: binding; settings: read-out: Percent Control
T9 construct: purchased Eurofins DiscoverX KINOMEscan (scanMAX 468)

[10] = target: T10, EGFR(L858R) (Homo sapiens, UniProt P00533, L858R); type: binding; settings: read-out: Percent Control
T10 construct: purchased Eurofins DiscoverX KINOMEscan (scanMAX 468)

[11] = target: T11, PYK2 (Homo sapiens, UniProt Q14289); type: binding; settings: read-out: Percent Control
T11 construct: purchased Eurofins DiscoverX KINOMEscan (scanMAX 468)

[12] = target: T12, MKNK1 (Homo sapiens, UniProt Q9BUB5); type: binding; settings: read-out: Percent Control
T12 construct: purchased Eurofins DiscoverX KINOMEscan (scanMAX 468)

[13] = target: T13, ABL1(F317L)-nonphosphorylated (Homo sapiens, UniProt P00519, F317L); type: binding; settings: read-out: Percent Control
T13 construct: purchased Eurofins DiscoverX KINOMEscan (scanMAX 468)

[14] = target: T14, ZAP70 (Homo sapiens, UniProt P43403); type: binding; settings: read-out: Percent Control
T14 construct: purchased Eurofins (KINOMEscan, DiscoverX)

[15] = target: T15, MARK3 (Homo sapiens, UniProt P27448); type: binding; settings: read-out: Percent Control
T15 construct: purchased Eurofins DiscoverX KINOMEscan (scanMAX 468)

[16] = target: T16, GAK (Homo sapiens, UniProt O14976); type: binding; settings: read-out: Percent Control
T16 construct: purchased Eurofins DiscoverX KINOMEscan (scanMAX 468)

[17] = target: T17, CDKL1 (Homo sapiens, UniProt Q00532); type: binding; settings: read-out: Percent Control
T17 construct: purchased Eurofins DiscoverX KINOMEscan (scanMAX 468)

[18] = target: T18, PFTK1 (Homo sapiens, UniProt O94921); type: binding; settings: read-out: Percent Control
T18 construct: purchased Eurofins DiscoverX KINOMEscan (scanMAX 468)

[19] = target: T19, SRPK1 (Homo sapiens, UniProt Q96SB4); type: binding; settings: read-out: Percent Control
T19 construct: purchased Eurofins DiscoverX KINOMEscan (scanMAX 468)

[20] = target: T20, MLK2 (Homo sapiens, UniProt Q02779); type: binding; settings: read-out: Percent Control
T20 construct: purchased Eurofins DiscoverX KINOMEscan (scanMAX 468)

[21] = target: T21, PIK3CA(E545A) (Homo sapiens, UniProt P42336, E545A); type: binding; settings: read-out: Percent Control
T21 construct: purchased Eurofins DiscoverX KINOMEscan (scanMAX 468)

[22] = target: T22, RET (Homo sapiens, UniProt P07949); type: binding; settings: read-out: Percent Control
T22 construct: purchased Eurofins DiscoverX KINOMEscan (scanMAX 468)

[23] = target: T23, SNARK (Homo sapiens, UniProt Q9H093); type: binding; settings: read-out: Percent Control
T23 construct: purchased Eurofins DiscoverX KINOMEscan (scanMAX 468)

[24] = target: T24, RIPK2 (Homo sapiens, UniProt O43353); type: binding; settings: read-out: Percent Control
T24 construct: purchased Eurofins DiscoverX KINOMEscan (scanMAX 468)

[25] = target: T25, CHEK1 (Homo sapiens, UniProt O14757); type: binding; settings: read-out: Percent Control
T25 construct: purchased Eurofins DiscoverX KINOMEscan (scanMAX 468)

[26] = target: T26, CAMK2A (Homo sapiens, UniProt Q9UQM7); type: binding; settings: read-out: Percent Control
T26 construct: purchased Eurofins DiscoverX KINOMEscan (scanMAX 468)

[27] = target: T27, ABL1(H396P)-phosphorylated (Homo sapiens, UniProt P00519, H396P); type: binding; settings: read-out: Percent Control
T27 construct: purchased Eurofins DiscoverX KINOMEscan (scanMAX 468)

[28] = target: T28, BRK (Homo sapiens, UniProt Q13882); type: binding; settings: read-out: Percent Control
T28 construct: purchased Eurofins DiscoverX KINOMEscan (scanMAX 468)

[29] = target: T29, PRKCD (Homo sapiens, UniProt Q05655); type: binding; settings: read-out: Percent Control
T29 construct: purchased Eurofins DiscoverX KINOMEscan (scanMAX 468)

[30] = target: T30, BRSK1 (Homo sapiens, UniProt Q8TDC3); type: binding; settings: read-out: Percent Control
T30 construct: purchased Eurofins DiscoverX KINOMEscan (scanMAX 468)

[31] = target: T31, TTK (Homo sapiens, UniProt P33981); type: binding; settings: read-out: Percent Control
T31 construct: purchased Eurofins DiscoverX KINOMEscan (scanMAX 468)

[32] = target: T32, CTK (Homo sapiens, UniProt P42679); type: binding; settings: read-out: Percent Control
T32 construct: purchased Eurofins DiscoverX KINOMEscan (scanMAX 468)

[33] = target: T33, PRKCH (Homo sapiens, UniProt P24723); type: binding; settings: read-out: Percent Control
T33 construct: purchased Eurofins DiscoverX KINOMEscan (scanMAX 468)

[34] = target: T34, IRAK3 (Homo sapiens, UniProt Q9Y616); type: binding; settings: read-out: Percent Control
T34 construct: purchased Eurofins DiscoverX KINOMEscan (scanMAX 468)

[35] = target: T35, ERN1 (Homo sapiens, UniProt O75460); type: binding; settings: read-out: Percent Control
T35 construct: purchased Eurofins DiscoverX KINOMEscan (scanMAX 468)

[36] = target: T36, INSR (Homo sapiens, UniProt P06213); type: binding; settings: read-out: Percent Control
T36 construct: purchased Eurofins DiscoverX KINOMEscan (scanMAX 468)

[37] = target: T37, CDK4-cyclinD3 (Homo sapiens, UniProt P11802); type: binding; settings: read-out: Percent Control
T37 construct: purchased Eurofins DiscoverX KINOMEscan (scanMAX 468)

[38] = target: T38, ABL1-nonphosphorylated (Homo sapiens, UniProt P00519); type: binding; settings: read-out: Percent Control
T38 construct: purchased Eurofins DiscoverX KINOMEscan (scanMAX 468)

[39] = target: T39, MYLK (Homo sapiens, UniProt Q15746); type: binding; settings: read-out: Percent Control
T39 construct: purchased Eurofins DiscoverX KINOMEscan (scanMAX 468)

[40] = tested on: FLT3(ITD,F691L); type: binding, human; settings: 1 μM
[41] = target: T40, MAP3K3 (Homo sapiens, UniProt Q99759); type: binding; settings: read-out: Percent Control
T40 construct: purchased Eurofins DiscoverX KINOMEscan (scanMAX 468)

[42] = target: T41, ABL2 (Homo sapiens, UniProt P42684); type: binding; settings: read-out: Percent Control
T41 construct: purchased Eurofins DiscoverX KINOMEscan (scanMAX 468)

[43] = target: T42, SGK3 (Homo sapiens, UniProt Q96BR1); type: binding; settings: read-out: Percent Control
T42 construct: purchased Eurofins DiscoverX KINOMEscan (scanMAX 468)

[44] = target: T43, ABL1(H396P)-nonphosphorylated (Homo sapiens, UniProt P00519, H396P); type: binding; settings: read-out: Percent Control
T43 construct: purchased Eurofins DiscoverX KINOMEscan (scanMAX 468)

T26 sequence (Q9UQM7 whole entry): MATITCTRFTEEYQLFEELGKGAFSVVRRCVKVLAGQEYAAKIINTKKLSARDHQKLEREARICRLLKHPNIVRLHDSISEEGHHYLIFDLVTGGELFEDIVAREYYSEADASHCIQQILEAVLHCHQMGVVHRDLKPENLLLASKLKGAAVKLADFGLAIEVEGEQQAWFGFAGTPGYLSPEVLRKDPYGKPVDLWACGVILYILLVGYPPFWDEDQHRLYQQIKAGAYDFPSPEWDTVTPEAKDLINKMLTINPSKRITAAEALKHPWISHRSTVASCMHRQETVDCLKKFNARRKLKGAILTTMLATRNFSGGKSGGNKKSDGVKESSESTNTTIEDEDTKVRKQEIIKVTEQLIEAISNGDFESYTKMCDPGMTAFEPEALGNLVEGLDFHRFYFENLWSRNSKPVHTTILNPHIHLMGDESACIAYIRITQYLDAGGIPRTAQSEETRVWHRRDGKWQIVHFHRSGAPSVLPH
T15 sequence (P27448 whole entry): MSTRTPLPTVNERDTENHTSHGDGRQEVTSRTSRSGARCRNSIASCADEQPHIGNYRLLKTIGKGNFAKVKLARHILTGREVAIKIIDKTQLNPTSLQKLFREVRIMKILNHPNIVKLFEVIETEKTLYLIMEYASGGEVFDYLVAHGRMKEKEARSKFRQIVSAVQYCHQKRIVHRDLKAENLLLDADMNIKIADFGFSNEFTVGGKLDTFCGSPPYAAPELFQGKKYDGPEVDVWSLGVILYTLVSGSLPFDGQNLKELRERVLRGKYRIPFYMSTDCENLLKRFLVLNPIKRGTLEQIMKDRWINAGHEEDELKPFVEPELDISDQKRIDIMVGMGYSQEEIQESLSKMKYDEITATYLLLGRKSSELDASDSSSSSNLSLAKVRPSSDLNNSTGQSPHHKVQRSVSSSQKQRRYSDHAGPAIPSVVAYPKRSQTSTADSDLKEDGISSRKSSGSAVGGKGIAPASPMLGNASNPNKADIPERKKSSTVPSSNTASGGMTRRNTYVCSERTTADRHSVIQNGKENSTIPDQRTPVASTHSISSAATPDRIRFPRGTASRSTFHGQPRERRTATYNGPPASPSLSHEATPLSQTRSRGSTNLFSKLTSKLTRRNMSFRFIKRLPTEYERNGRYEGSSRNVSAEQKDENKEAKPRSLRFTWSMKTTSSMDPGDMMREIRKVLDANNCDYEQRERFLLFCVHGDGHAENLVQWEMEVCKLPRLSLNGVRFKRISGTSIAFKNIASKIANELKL
T30 sequence (Q8TDC3 whole entry): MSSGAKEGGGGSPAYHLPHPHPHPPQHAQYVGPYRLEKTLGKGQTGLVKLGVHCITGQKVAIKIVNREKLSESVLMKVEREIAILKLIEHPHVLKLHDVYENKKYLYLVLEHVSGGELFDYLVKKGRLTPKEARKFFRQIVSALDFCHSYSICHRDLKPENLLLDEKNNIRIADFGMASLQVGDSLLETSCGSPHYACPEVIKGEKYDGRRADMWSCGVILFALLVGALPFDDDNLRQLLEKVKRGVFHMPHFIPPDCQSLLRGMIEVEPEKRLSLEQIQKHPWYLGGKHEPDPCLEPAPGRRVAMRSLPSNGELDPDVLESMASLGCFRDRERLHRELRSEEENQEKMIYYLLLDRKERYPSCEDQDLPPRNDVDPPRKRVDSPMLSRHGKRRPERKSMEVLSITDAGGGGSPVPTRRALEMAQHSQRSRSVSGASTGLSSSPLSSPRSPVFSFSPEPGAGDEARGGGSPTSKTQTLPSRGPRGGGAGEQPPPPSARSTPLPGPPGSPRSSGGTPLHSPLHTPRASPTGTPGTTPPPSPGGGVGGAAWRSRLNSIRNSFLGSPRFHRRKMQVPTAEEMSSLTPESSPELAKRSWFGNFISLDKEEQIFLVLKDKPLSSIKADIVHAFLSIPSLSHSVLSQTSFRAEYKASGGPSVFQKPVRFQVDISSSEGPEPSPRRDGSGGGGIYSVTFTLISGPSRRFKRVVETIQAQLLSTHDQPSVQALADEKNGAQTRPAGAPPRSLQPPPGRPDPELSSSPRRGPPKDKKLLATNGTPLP
T21 sequence (P42336 whole entry E545A): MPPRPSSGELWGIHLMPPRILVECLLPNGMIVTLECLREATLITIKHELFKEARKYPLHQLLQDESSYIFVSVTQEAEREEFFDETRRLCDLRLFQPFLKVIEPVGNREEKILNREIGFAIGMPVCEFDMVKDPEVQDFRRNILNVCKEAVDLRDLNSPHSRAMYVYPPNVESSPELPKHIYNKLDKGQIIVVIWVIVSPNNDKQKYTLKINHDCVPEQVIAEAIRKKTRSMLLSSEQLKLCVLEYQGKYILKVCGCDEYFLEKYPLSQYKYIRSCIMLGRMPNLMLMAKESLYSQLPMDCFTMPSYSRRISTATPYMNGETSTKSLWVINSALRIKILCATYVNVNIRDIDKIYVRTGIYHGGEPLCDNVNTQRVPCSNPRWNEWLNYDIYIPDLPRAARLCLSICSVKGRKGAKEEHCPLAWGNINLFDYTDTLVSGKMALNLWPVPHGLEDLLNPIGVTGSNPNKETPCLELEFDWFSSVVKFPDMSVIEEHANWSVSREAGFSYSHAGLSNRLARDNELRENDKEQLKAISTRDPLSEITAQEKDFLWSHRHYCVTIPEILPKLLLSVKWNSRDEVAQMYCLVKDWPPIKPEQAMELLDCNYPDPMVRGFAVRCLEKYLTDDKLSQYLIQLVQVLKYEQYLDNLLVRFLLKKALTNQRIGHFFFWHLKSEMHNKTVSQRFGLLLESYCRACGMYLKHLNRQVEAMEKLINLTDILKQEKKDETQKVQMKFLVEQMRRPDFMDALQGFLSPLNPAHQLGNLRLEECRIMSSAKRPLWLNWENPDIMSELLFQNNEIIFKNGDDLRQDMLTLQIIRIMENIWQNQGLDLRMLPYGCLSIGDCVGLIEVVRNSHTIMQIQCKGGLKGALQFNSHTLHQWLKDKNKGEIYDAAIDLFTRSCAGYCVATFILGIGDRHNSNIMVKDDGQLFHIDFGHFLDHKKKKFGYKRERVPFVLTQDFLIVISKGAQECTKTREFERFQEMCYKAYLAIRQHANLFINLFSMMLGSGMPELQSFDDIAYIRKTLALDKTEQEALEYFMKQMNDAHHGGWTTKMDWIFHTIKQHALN
T22 sequence (P07949 29-1114): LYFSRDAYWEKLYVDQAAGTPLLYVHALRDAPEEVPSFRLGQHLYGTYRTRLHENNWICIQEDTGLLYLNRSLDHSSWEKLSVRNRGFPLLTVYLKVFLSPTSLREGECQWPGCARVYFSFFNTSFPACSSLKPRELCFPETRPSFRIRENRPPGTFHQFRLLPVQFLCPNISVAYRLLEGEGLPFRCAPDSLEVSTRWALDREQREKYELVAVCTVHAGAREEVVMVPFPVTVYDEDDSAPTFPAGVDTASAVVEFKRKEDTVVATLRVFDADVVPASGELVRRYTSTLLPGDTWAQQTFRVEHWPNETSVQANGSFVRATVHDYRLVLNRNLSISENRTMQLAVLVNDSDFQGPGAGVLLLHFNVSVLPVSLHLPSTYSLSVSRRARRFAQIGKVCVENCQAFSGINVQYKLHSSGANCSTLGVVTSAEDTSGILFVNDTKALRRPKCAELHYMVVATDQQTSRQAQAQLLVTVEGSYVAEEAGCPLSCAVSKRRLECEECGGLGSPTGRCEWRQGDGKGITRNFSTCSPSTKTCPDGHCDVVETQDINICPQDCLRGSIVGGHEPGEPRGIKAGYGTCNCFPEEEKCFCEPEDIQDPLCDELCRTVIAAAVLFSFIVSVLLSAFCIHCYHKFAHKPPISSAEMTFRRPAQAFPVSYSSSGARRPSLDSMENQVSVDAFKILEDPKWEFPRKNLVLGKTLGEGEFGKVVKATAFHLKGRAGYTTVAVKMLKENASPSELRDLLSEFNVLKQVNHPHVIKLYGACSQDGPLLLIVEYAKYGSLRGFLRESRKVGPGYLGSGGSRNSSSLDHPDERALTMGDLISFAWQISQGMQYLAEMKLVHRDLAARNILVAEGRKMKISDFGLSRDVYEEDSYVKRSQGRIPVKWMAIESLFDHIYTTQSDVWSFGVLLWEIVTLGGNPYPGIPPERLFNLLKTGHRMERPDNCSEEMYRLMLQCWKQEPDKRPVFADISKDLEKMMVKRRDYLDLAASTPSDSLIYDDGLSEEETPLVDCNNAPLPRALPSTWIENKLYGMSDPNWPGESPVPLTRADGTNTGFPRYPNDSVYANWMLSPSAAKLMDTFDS
T17 sequence (Q00532 whole entry): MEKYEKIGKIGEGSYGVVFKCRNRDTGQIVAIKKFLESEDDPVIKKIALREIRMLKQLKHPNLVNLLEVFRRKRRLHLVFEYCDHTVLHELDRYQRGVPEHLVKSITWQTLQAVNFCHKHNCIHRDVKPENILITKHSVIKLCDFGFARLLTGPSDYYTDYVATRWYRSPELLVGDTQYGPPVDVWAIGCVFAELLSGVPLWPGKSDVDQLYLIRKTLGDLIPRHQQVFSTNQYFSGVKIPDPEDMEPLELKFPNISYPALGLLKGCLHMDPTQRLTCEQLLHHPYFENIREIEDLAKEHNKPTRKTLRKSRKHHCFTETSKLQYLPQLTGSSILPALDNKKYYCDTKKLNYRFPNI
T32 sequence (P42679 whole entry): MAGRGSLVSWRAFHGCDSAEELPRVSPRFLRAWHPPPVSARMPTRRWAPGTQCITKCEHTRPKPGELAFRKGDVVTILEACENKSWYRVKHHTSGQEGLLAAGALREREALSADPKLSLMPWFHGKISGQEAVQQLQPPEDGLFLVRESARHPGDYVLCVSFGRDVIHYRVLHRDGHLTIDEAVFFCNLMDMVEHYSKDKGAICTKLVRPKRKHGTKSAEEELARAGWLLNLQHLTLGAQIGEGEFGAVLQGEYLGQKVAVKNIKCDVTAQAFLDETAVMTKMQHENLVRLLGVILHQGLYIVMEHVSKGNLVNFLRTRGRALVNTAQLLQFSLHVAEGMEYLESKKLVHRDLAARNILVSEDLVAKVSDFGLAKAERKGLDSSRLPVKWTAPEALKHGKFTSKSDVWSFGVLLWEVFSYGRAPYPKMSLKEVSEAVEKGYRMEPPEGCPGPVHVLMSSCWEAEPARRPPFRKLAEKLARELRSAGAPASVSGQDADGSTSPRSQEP

Cc1ccc(-n2cc(COc3cccc4cnc(Nc5cccc(Cl)c5)nc34)nn2)c([N+](=O)[O-])c1 [DB18]
94 % Ctrl: Percent Control [40]
100%: remaining binding at 1 µM [4] | remaining binding at 1 µM [5] | remaining binding at 1 µM [6] | remaining binding at 1 µM [7] | remaining binding at 1 µM [11] | remaining binding at 1 µM [12] | remaining binding at 1 µM [13] | remaining binding at 1 µM [14] | remaining binding at 1 µM [15] | remaining binding at 1 µM [16] | remaining binding at 1 µM [18] | remaining binding at 1 µM [19] | remaining binding at 1 µM [20] | remaining binding at 1 µM [21] | remaining binding at 1 µM [23] | remaining binding at 1 µM [25] | remaining binding at 1 µM [28] | remaining binding at 1 µM [29] | remaining binding at 1 µM [30] | remaining binding at 1 µM [33] | remaining binding at 1 µM [37] | remaining binding at 1 µM [42] | remaining binding at 1 µM [43]
94%: remaining binding at 1 µM [10] | remaining binding at 1 µM [35]
91%: remaining binding at 1 µM [8]
92%: remaining binding at 1 µM [22] | remaining binding at 1 µM [39]
88%: remaining binding at 1 µM [3] | remaining binding at 1 µM [17]
99%: remaining binding at 1 µM [2] | remaining binding at 1 µM [9] | remaining binding at 1 µM [41]
86%: remaining binding at 1 µM [31]
98%: remaining binding at 1 µM [24] | remaining binding at 1 µM [27]
93%: remaining binding at 1 µM [1] | remaining binding at 1 µM [36]
59%: remaining binding at 1 µM [34]
96%: remaining binding at 1 µM [26] | remaining binding at 1 µM [32] | remaining binding at 1 µM [44]
85%: remaining binding at 1 µM [38]
